Data reported in a melting point compilation (Tetko et al.; mined from patent text by program, amines drawn as free bases though some values may be those of a salt).

Row | SMILES | melting point
1 | CCCCCCCCCCCCCCCCCCOc1cc(OCCCCC(=O)OC)cc(N(CC(=O)O)CC(=O)O)c1 | 91 to 94 °C
2 | CC(C)(C)c1cc(C(=O)Nc2nc(CC(=O)NCCN3CCN(c4ncccn4)CC3)cs2)cc(C(C)(C)C)c1O | 175 to 179 °C
3 | Fc1cc(CC2(Cc3ccncc3)c3ccccc3Oc3ccccc32)ccn1 | 180 to 181 °C
4 | CCOC(=O)c1ccc(OCC2CN(c3ccc(S(C)(=O)=O)nn3)CCO2)cc1 (stereo not drawn) | 197 °C
5 | CS(=O)(=O)c1ccc(-c2oc(C(=O)O)cc(=O)c2-c2ccc(Cl)cc2)cc1 | 236 °C
6 | COP(=O)(COC1C=CC(n2cnc3c(N)ncnc32)O1)OC (stereo not drawn) | 146 to 149 °C
7 | Cn1c(CO)nc2cnccc21 | 285 to 290 °C
8 | Cc1ccc(C2CCN(C(=O)Nc3ccc4cc(CN5CCCC5)cnc4c3)CC2)cc1 | 244 to 246 °C
9 | c1ccc(-c2ccc(-n3cccc3)cc2)cc1 | 190 to 192 °C
10 | O=C(O)Cc1ccc(NC(=O)C(Cc2ccccc2)NS(=O)(=O)c2ccc(Br)cc2)cc1 (racemic) | 184 to 185 °C
11 | N#CNc1ccc(OCc2ccccc2)cc1 | 105 °C
12 | CCOCc1nc2c(N)nc3ccccc3c2n1CCCC(=O)N1CCOCC1 | 201 to 203 °C
13 | CCOC(=O)CC(=O)Cc1ccc(OC)c([N+](=O)[O-])c1 | 87 to 88 °C
14 | N#Cc1c(N2CCN(C(=O)c3ccco3)CC2)c2cc(Cl)cnc2n(Cc2cccc(F)c2)c1=O | 134 °C
15 | CC(=O)NC(n1ccnc1)C(Cl)(Cl)CCl (stereo not drawn) | 151 to 154 °C
16 | C=CCOc1cccc(C[C@H](NC(=O)OC(C)(C)C)C(=O)OC)c1 | 50 to 51 °C
17 | CC12C=CCC1C1CCC3CCCCC3C1CC2 (stereo not drawn) | 165 to 166 °C
18 | CC12CCC(C1)C(C)(C)C2(CCO)SN=O (stereo not drawn) | 81 to 85 °C
19 | O=C(O)c1ccc(C(=O)/C=C/c2ccc(F)c(-c3cccs3)c2)cc1 | 242 to 244 °C
20 | O=S(=O)(NCCCCOc1ccc(-n2cnnn2)cc1)c1cccc2nsnc12 | 142 to 143 °C
21 | COC(=O)NNC(=O)CCc1ccccc1 | 118 °C
22 | CC(=O)NC[C@H]1CN(c2cc(F)c(N3CCC(n4nnc(N5CCN(C(C)=O)CC5)n4)CC3)c(F)c2)C(=O)O1 | 200 to 205 °C

Next, values leading:

Row | melting point | SMILES
23 | 171 to 172 °C | COn1c(C)nc2c(NCc3c(C)cccc3C)cc(Br)cc21
24 | 103 to 106 °C | Cc1cc(C)cc(C(=O)c2c(-c3ccc(OCCCN(C)C)cc3)oc3ccccc23)c1
25 | 99 to 101 °C | CCOC(=O)Cn1c(-c2cc(Cl)ccn2)nc2cccnc21
26 | 215 °C | Nc1ncc2cc(-c3c(Cl)cccc3Cl)c(=O)n(Cc3cccc(Br)c3)c2n1
27 | 175 to 185 °C | CCOC(=O)c1cc(NC(=O)C(Cc2ccc(Cl)c(Cl)c2)NC(=O)OC(C)(C)C)c[nH]1 (stereo not drawn)
28 | 146 to 147 °C | CCOC(=O)c1cc(OCc2ccccc2)c2c(Cl)cc(Cl)cc2n1
29 | 174 to 175 °C | CN1C(=O)Cn2c(nn(-c3ccccc3)c2=O)-c2cc(Cl)ccc21
30 | < 20 °C | CCOC(=O)C(C)(C)Oc1ccc(-c2ccc(CC(=O)Nc3cc(Cl)ccc3OC)cc2)cc1
31 | 71 to 75 °C | COc1cc2ccc(COC(C)=O)cc2cc1OC
32 | 147 to 149 °C | CCCc1nc2c(N)nc(C)c(C)c2n1CCCCCS(=O)(=O)c1ccc(Cl)cc1
33 | 292 to 295 °C | CCc1c2nc(-c3cc(S(C)(=O)=O)ccc3OCC(C)C)[nH]c(=O)c2nn1C1CCN(C)CC1
34 | 200 to 201 °C | O=C1c2c(-c3ccccc3)ccnc2OCCN1Cc1cc(C(F)(F)F)cc(C(F)(F)F)c1
35 | 90 to 92 °C | Cc1cccc2c1C(NCCSCc1ccc(CN(C)C)o1)=NS2(=O)=O
36 | 162 to 163 °C | CCn1nc2c(N)nc3cc(OC)ccc3c2c1CCc1ccccc1
37 | 159 to 161 °C | CS(=O)(=O)Nc1nc(-c2ccc(NS(C)(=O)=O)c(Sc3ccc(F)cc3F)c2)cs1
38 | 231 to 234 °C | CC(C)(CO)Nc1nc(SCc2cccc(F)c2F)nc2nc(N)sc12
